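Assay format: 96-well plates, 48-hour exposure. TGI: total growth inhibition.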
Experiments:
Assay in all cases: NCI anticancer screen, dose series, 48 h
HS 578T breast = system: HS 578T breast
MOLT-4 leukemia = system: MOLT-4 leukemia
SK-MEL-28 melanoma = system: SK-MEL-28 melanoma
NCI-H522 lung = system: NCI-H522 lung
SR leukemia = system: SR leukemia
SN12C renal = system: SN12C renal
OVCAR-3 ovarian = system: OVCAR-3 ovarian
UACC-257 melanoma = system: UACC-257 melanoma
OVCAR-8 ovarian = system: OVCAR-8 ovarian
SF-539 CNS = system: SF-539 CNS
DU-145 prostate = system: DU-145 prostate
KM12 colon = system: KM12 colon
HCT-15 colon = system: HCT-15 colon
NCI-H226 lung = system: NCI-H226 lung
SF-268 CNS = system: SF-268 CNS
CAKI-1 renal = system: CAKI-1 renal
LOX IMVI melanoma = system: LOX IMVI melanoma
MDA-N = system: MDA-N
ACHN renal = system: ACHN renal
OVCAR-5 ovarian = system: OVCAR-5 ovarian
HOP-62 NSCLC = system: HOP-62 NSCLC
UACC-62 melanoma = system: UACC-62 melanoma
K-562 leukemia = system: K-562 leukemia
BT-549 breast = system: BT-549 breast
SNB-75 CNS = system: SNB-75 CNS
MCF7 breast = system: MCF7 breast
T-47D breast = system: T-47D breast
HT29 colon = system: HT29 colon
IGROV1 ovarian = system: IGROV1 ovarian
U251 CNS = system: U251 CNS
SW-620 colon = system: SW-620 colon
A498 renal = system: A498 renal
RXF 393 renal = system: RXF 393 renal
CCRF-CEM leukemia = system: CCRF-CEM leukemia
A549 NSCLC = system: A549 NSCLC
TK-10 renal = system: TK-10 renal
SF-295 CNS = system: SF-295 CNS
MDA-MB-231 breast = system: MDA-MB-231 breast
HL-60(TB) leukemia = system: HL-60(TB) leukemia
EKVX NSCLC = system: EKVX NSCLC
NCI-H460 lung = system: NCI-H460 lung
SK-MEL-2 melanoma = system: SK-MEL-2 melanoma
RPMI-8226 leukemia = system: RPMI-8226 leukemia
NCI-H23 lung = system: NCI-H23 lung
MALME-3M melanoma = system: MALME-3M melanoma
SK-MEL-5 melanoma = system: SK-MEL-5 melanoma
PC-3 prostate = system: PC-3 prostate
HCC-2998 colon = system: HCC-2998 colon
SNB-19 CNS = system: SNB-19 CNS
786-0 renal = system: 786-0 renal
UO-31 renal = system: UO-31 renal
HCT-116 colon = system: HCT-116 colon
COLO 205 colon = system: COLO 205 colon
OVCAR-4 ovarian = system: OVCAR-4 ovarian
M14 melanoma = system: M14 melanoma
SK-OV-3 ovarian = system: SK-OV-3 ovarian
NCI/ADR-RES ovarian = system: NCI/ADR-RES ovarian
MDA-MB-435 = system: MDA-MB-435

Measured: TGI

N#Cc1c(N)[nH]c(=S)c(C#N)c1-c1ccccc1
not listed: COLO 205 colon | OVCAR-4 ovarian | M14 melanoma | SK-OV-3 ovarian | NCI/ADR-RES ovarian | MDA-MB-435
> 100 µM: all other assays above

CCN(CC)CCOc1ccccc1/C=C/c1noc2ccccc12
25.3 µM: NCI-H460 lung
26.9 µM: NCI-H23 lung
29.1 µM: DU-145 prostate
34.3 µM: SK-OV-3 ovarian
19.2 µM: HCT-116 colon
26.2 µM: CAKI-1 renal
76.7 µM: MOLT-4 leukemia
25.7 µM: MDA-MB-231 breast
16.5 µM: SK-MEL-5 melanoma
22.2 µM: NCI-H522 lung | SNB-75 CNS
29.9 µM: BT-549 breast
13.9 µM: MALME-3M melanoma
29.7 µM: SF-295 CNS
21.1 µM: SK-MEL-28 melanoma
25.9 µM: ACHN renal
30.5 µM: NCI-H226 lung
28.7 µM: TK-10 renal
22.4 µM: HCT-15 colon | UACC-62 melanoma
40.1 µM: HL-60(TB) leukemia
24.8 µM: OVCAR-8 ovarian
50.7 µM: OVCAR-4 ovarian
31.9 µM: EKVX NSCLC
15.4 µM: M14 melanoma
24.1 µM: COLO 205 colon | MDA-N
24.6 µM: SN12C renal
16 µM: HT29 colon
> 100 µM: K-562 leukemia
19.8 µM: PC-3 prostate
68 µM: SR leukemia
32.4 µM: T-47D breast
15.3 µM: UACC-257 melanoma
81.6 µM: CCRF-CEM leukemia
38.8 µM: NCI/ADR-RES ovarian
22.3 µM: IGROV1 ovarian
38.1 µM: OVCAR-3 ovarian
19.3 µM: UO-31 renal
27.9 µM: MCF7 breast
31.8 µM: SF-539 CNS
16.7 µM: SK-MEL-2 melanoma
26.7 µM: SNB-19 CNS | 786-0 renal
25.1 µM: OVCAR-5 ovarian
18 µM: HCC-2998 colon
31.3 µM: HOP-62 NSCLC | A498 renal
31.5 µM: KM12 colon
23 µM: SW-620 colon
32.3 µM: HS 578T breast
37 µM: SF-268 CNS
9.97 µM: RXF 393 renal

O=C(O)c1ccc(NC(NC(=O)C(C(F)(F)F)C(F)(F)F)(C(F)(F)F)C(F)(F)F)cc1
not listed: NCI-H522 lung | OVCAR-3 ovarian | DU-145 prostate | KM12 colon | NCI-H226 lung | HOP-62 NSCLC | UACC-62 melanoma | MCF7 breast | SF-295 CNS | MDA-MB-231 breast | NCI-H460 lung | MALME-3M melanoma | OVCAR-4 ovarian
> 100 µM: all other assays above

O=C(CSc1nc2[nH]ncc2c(=O)[nH]1)c1ccc(Cl)cc1
not listed: DU-145 prostate | A498 renal | HL-60(TB) leukemia
> 100 µM: all other assays above

— PubChem BioAssay (NCI)
